This is an account of results in PMC7816196, “Antitubercular 2-Pyrazolylpyrimidinones: Structure–Activity Relationship and Mode-of-Action Studies” (Journal of Medicinal Chemistry, 2021).

Values after ≈ are worked out from the molar mass of the structure shown. Like-named read-outs stand apart in the source and are kept apart here. A value given as a limit tells only on which side of the number the result lay.

In one data set the test system is Mtb H37Rv. Briefly: MIC against Mtb H37Rv, Alamar Blue broth microdilution. The format is cell-based, Mycobacterium tuberculosis.
Data set [1] is described as follows: Kinetic aqueous solubility at pH 7.4. It counts as physicochemical. The method, then:
3) In vitro ADME - assays
The kinetic solubility assay was p erfo rmed using a miniaturised shake flask method. 10 mM stock solutions of each of the test compounds were used to prepare calibration standards (10-220 µM) in DMSO. The same 10 mM stock soluti ons were accurately dispensed in duplicat e into 96-well plates and the DMSO dried down (MiVac GeneVac, 90 min, 37 °C). Thereafter, the samples were reconstituted (200 µM) in phosphate buffered saline (pH 7. 4) and shaken (20 hours,25 °C). The solutions were centrifuged, and the supernatant was an alysed by means of HPLC-DAD (Agilent 1200 Rapid Resolution HPLC with a diode array detector). Best fit calibration curves were constructed using the calibration standards, which were used to determine the aqueous samples’ solubility.4
The metabolic stability assay was performed in dup licate in a 96-well micro t itre plate. The test compounds (0.1 µM) were incubated individually in mouse, rat and pooled human liver microsomes (final protei n concentration of 0.4 m g/mL; XenoTech, Lenexa, KS), suspended in 0.1M phosphate buffer (pH 7.4) for predetermined time points, in the presence and abs ence of the cofactor NADPH (1 mM). Reactions were quenched by adding 300 µL of ice cold acetonitrile containing internal standard (carbamazepine, 0.0236 µg/mL). The samples were centrifuged and test in the supernatant were an alysed by means of LC-MS/MS ((Agilent Rapid Resolution HPLC, AB SCIEX 4500 MS). The rel ative loss of parent compound over time w as monitored and plots (concentration vs. time) were prepared per compound to determine the first order rate constant for compound depletion. This was in turn used to calculate h alf-life, in vitro intrinsic clearance and in vivo hepatic extraction ratio. Metabolite search es were not conducted during the met abolic stability assay.5

The test system of the next data set is WT H37Rv. As to the kind of experiment: microbe, parasite or virus in culture. The format is cell-based, M. tuberculosis. The following applies: Mycobacterium tuberculosis.
For the next data set, the system named is mmpL3-TetON. Briefly: microbe, parasite or virus in culture. The following applies: for MIC50 / MIC: Mycobacterium tuberculosis. The format is cell-based, M. tuberculosis.
Setting [2] is: phosphate buffered saline, pH 7.4, aqueous (kinetic) solubility at pH 7.4, read-out: Solubility.
[3] abbreviates: Mycobacterium tuberculosis, H37RV, supplement csv, medium not stated.
The mark [4] stands for this setting: Mycobacterium tuberculosis, H37RV, 168 h.

For the compound “2-(3-Methyl-5-oxo-2,5-dihydro-1H-pyrazol-1-yl)-6-phenylpyrimidin-4(1H)-one [Compound 13]”, the MIC was above 125 µM against Mtb H37Rv and above 125 µM against Mtb H37Rv (supplement csv, medium not stated). Also, in data set [1] (aqueous (kinetic) solubility at pH 7.4, read-out: Solubility), the solubility at 20 h turned out to be 190 µM.

For the compound `COc1cc(-c2ccccc2)nc(-n2nc(C)cc2C)n1` [Compound 3, 2-(3,5-Dimethyl-1H-pyrazol-1-yl)-4-methoxy-6-phenylpyrimidine], in data set [1] (setting [2]), the solubility at 20 h was at least 200 µM.

Regarding `Cc1cc(C)n(-c2nc(-c3ccccc3)cc(=O)n2C)n1` [Compound 4, 2-(3,5-Dimethyl-1H-pyrazol-1-yl)-3-methyl-6-phenylpyrimidin-4(3H)-one], the solubility at 20 h in data set [1] (setting [2]) is at least 200 µM.

Regarding `Cc1cc(O)nc(-n2nc(C)cc2C)n1` [Compound 11, 2-(3,5-Dimethyl-1H-pyrazol-1-yl)-6-methylpyrimidin-4(3H)-one], the loss in activity in the data set with Mtb H37Rv (CH3 or CF3 at R1 instead of phenyl) was 10–15 fold.

With `Cn1ccnc1-c1nc(-c2ccccc2)cc(=O)[nH]1` [Compound 18, 2-(1-Methyl-1H-imidazole-2-yl)-6-phenylpyrimidin-4(1H)-one], the solubility at 20 h in data set [1] (setting [2]) is at least 200 µM.

`Cc1cc(C)n(-c2nc(-c3ccc(F)cc3)cc(=O)[nH]2)n1` [Compound 19, 2-(3,5-Dimethyl-1H-pyrazol-1-yl)-6-(4-fluorophenyl)pyrimidin-4(3H)-one] came in with an MIC with Mtb H37Rv (setting [3]) of 1 µM (≈ 0.284 µg/mL).

For `Cc1cc(C)n(-c2nc(-c3cccnc3)cc(=O)[nH]2)n1` [Compound 21, 2-(3,5-Dimethyl-1H-pyrazol-1-yl)-6-(pyridin-3-yl)pyrimidin-4(3H)-one], the solubility at 20 h in data set [1] (setting [2]) is at least 200 µM.

On to `Cc1cc(C)n(-c2nc(C(=O)Nc3ccc(F)cc3)cc(=O)[nH]2)n1` [Compound 26, 2-(3,5-Dimethyl-1H-pyrazol-1-yl)-N-(4-fluorophenyl)-6-oxo-1,6-dihydropyrimidine-4-carboxamide], for which the solubility at 20 h in data set [1] (setting [2]) is at least 200 µM.

`CCc1cc(C)nn1-c1nc(C(F)(F)F)cc(=O)[nH]1` [Compound 30, 2-(5-Ethyl-3-methyl-1H-pyrazol-1-yl)-6-(trifluoromethyl)pyrimidin-4(3H)-one]: the solubility at 20 h in data set [1] (setting [2]) was at least 200 µM.

Take `Cc1cc(-c2ccccc2)n(-c2nc(C(F)(F)F)cc(=O)[nH]2)n1` [Compound 32, 2-(3-Methyl-5-phenyl-1H-pyrazol-1-yl)-6-(trifluoromethyl)pyrimidin-4(3H)-one]: the solubility at 20 h in data set [1] (setting [2]) was at least 200 µM.

Regarding `Cc1cc(N)n(-c2nc(C(F)(F)F)cc(=O)[nH]2)n1` [Compound 33, 2-(5-Amino-3-methyl-1H-pyrazol-1-yl)-6-(trifluoromethyl)pyrimidin-4(3H)-one], the solubility at 20 h in data set [1] (setting [2]) was at least 200 µM.

In turn, `CCNc1cc(C)nn1-c1nc(C(F)(F)F)cc(=O)[nH]1` [Compound 34, 2-(5-(Ethylamino)-3-methyl-1H-pyrazol-1-yl)-6-(trifluoromethyl)pyrimidin-4(3H)-one] had an MIC with Mtb H37Rv (setting [3]) of 6 µM (≈ 1.72 µg/mL).

Regarding `Cc1cc(NCCN(C)C)n(-c2nc(C(F)(F)F)cc(=O)[nH]2)n1` [Compound 36, 2-(5-((2-(Dimethylamino)ethyl)amino)-3-methyl-1H-pyrazol-1-yl)-6-(trifluoromethyl)pyrimidin-4(3H)-one], the solubility at 20 h in data set [1] (setting [2]) was at least 200 µM.

Turning to `Cc1cc(NCCO)n(-c2nc(C(F)(F)F)cc(=O)[nH]2)n1` [Compound 37, 2-(5-((2-Hydroxyethyl)amino)-3-methyl-1H-pyrazol-1-yl)-6-(trifluoromethyl)pyrimidin-4(3H)-one], the solubility at 20 h in data set [1] (setting [2]) was at least 200 µM.

Take `COCCNc1cc(C)nn1-c1nc(C(F)(F)F)cc(=O)[nH]1` [Compound 38, 2-(5-((2-Methoxyethyl)amino)-3-methyl-1H-pyrazol-1-yl)-6-(trifluoromethyl)pyrimidin-4(3H)-one]: the MIC with Mtb H37Rv (setting [4]) is 1.5 to 2 µM (≈ 0.476 to 0.635 µg/mL); against WT H37Rv (experiment: Follow-Up) it was 1.5 µM (≈ 0.476 µg/mL); in the data set on WT H37Rv (experiment: Initial), 1.1 µM (≈ 0.349 µg/mL); against mmpL3-TetON (experiment: Initial), 1.1 µM (≈ 0.349 µg/mL). The solubility at 20 h in data set [1] (setting [2]) was at least 200 µM. The MIC50 against WT H37Rv (experiment: Follow-Up) was determined as 0.87 µM (≈ 0.276 µg/mL); with WT H37Rv (experiment: Initial) it was 0.46 µM (≈ 0.146 µg/mL); with mmpL3-TetON (experiment: Follow-Up) it was 0.78 µM (≈ 0.247 µg/mL); against mmpL3-TetON (experiment: Initial) it was 0.47 µM (≈ 0.149 µg/mL). For the same compound, the “change in MIC on transcriptional silencing of mmpL3” value in the data set with mmpL3-TetON was “no significant change”.

In the case of `Cc1cc(NC2CCOCC2)n(-c2nc(C(F)(F)F)cc(=O)[nH]2)n1` [Compound 39, 2-(3-Methyl-5-((tetrahydro-2H-pyran-4-yl)amino)-1H-pyrazol-1-yl)-6-(trifluoromethyl)pyrimidin-4(3H)-one], the MIC in the data set on Mtb H37Rv (setting [4]) is 1.5 to 2 µM (≈ 0.515 to 0.687 µg/mL); in the data set with Mtb H37Rv (setting [3]), 1 µM (≈ 0.343 µg/mL).

In the data set on Mtb H37Rv (setting [4]), `Cc1cc(Nc2ccc(F)cc2F)n(-c2nc(C(F)(F)F)cc(=O)[nH]2)n1` [Compound 41, 2-(5-((2,4-Difluorophenyl)amino)-3-methyl-1H-pyrazol-1-yl)-6-(trifluoromethyl)pyrimidin-4(3H)-one] gave an MIC of 0.2 µM (≈ 0.0743 µg/mL).

Regarding `Cc1cc(Nc2ccc(C#N)cc2)n(-c2nc(C(F)(F)F)cc(=O)[nH]2)n1` [Compound 42, 4-((3-Methyl-1-(6-oxo-4-(trifluoromethyl)-1,6-dihydropyrimidin-2-yl)-1H-pyrazol-5-yl)amino)benzonitrile], the MIC with Mtb H37Rv (setting [4]) and in the data set on Mtb H37Rv (setting [3]) was 9 µM (≈ 3.24 µg/mL) each time.

Turning to `Cc1cc(Nc2ccc(C(=O)N(C)C)cc2)n(-c2nc(C(F)(F)F)cc(=O)[nH]2)n1` [Compound 43, N,N-Dimethyl-4-((3-Methyl-1-(6-oxo-4-(trifluoromethyl)-1,6-dihydropyrimidin-2-yl)-1H-pyrazol-5-yl)amino)benzamide], the solubility at 20 h in data set [1] (setting [2]) was at least 200 µM.

In the case of `Cc1cc(Nc2ccncc2)n(-c2nc(C(F)(F)F)cc(=O)[nH]2)n1` [Compound 44, 2-(3-Methyl-5-(pyridin-4-ylamino)-1H-pyrazol-1-yl)-6-(trifluoromethyl)pyrimidin-4(3H)-one], the solubility at 20 h in data set [1] (phosphate buffered saline, pH 7.4, supplement csv, pH 7.4, read-out: SolubilitypH 7.4) worked out at 22 µM (≈ 7.4 µg/mL).

Regarding `Cc1cc(Nc2ccc(N3CCOCC3)cn2)n(-c2nc(C(F)(F)F)cc(=O)[nH]2)n1` [Compound 46, 2-(3-Methyl-5-((5-morpholinopyridin-2-yl)amino)-1H-pyrazol-1-yl)-6-(trifluoromethyl)pyrimidin-4(3H)-one], the MIC against Mtb H37Rv (setting [4]) and with Mtb H37Rv (setting [3]) was 2 µM (≈ 0.843 µg/mL) each time.

In the case of `Cc1nn(-c2nc(C(F)(F)F)cc(=O)[nH]2)c(C)c1Br` [Compound 48, 2-(4-Bromo-3,5-dimethyl-1H-pyrazol-1-yl)-6-(trifluoromethyl)pyrimidin-4(3H)-one], the solubility at 20 h in data set [1] (setting [2]) was at least 200 µM.

For the compound `Cc1nn(-c2nc(C(F)(F)F)cc(=O)[nH]2)c(C)c1N1CCOCC1` [Compound 50, 2-(3,5-Dimethyl-4-morpholino-1H-pyrazol-1-yl)-6-(trifluoromethyl)pyrimidin-4(3H)-one], the MIC with Mtb H37Rv (setting [3]) turned out to be 6 µM (≈ 2.06 µg/mL).

In the case of `Cc1cc(CN(C)C)nn1-c1nc(C(F)(F)F)cc(=O)[nH]1` [Compound 52, 2-(3-((Dimethylamino)methyl)-5-methyl-1H-pyrazol-1-yl)-6-(trifluoromethyl)pyrimidin-4(3H)-one], in data set [1] (setting [2]), the solubility at 20 h is at least 200 µM.

On to `CC[C@@H](CO)NCCN[C@@H](CC)CO` [Ethambutol, reference compound], for which the MIC in the data set on WT H37Rv (experiment: Follow-Up) came to 3.8 µM (≈ 0.776 µg/mL); in the data set on WT H37Rv (experiment: Initial), 2.4 µM (≈ 0.49 µg/mL); against mmpL3-TetON (experiment: Follow-Up), 4.9 µM (≈ 1 µg/mL); against mmpL3-TetON (experiment: Initial) it was 1.6 µM (≈ 0.327 µg/mL). In addition, the MIC50 in the data set with WT H37Rv (experiment: Follow-Up) amounted to 1.4 µM (≈ 0.286 µg/mL); in the data set on WT H37Rv (experiment: Initial), 0.98 µM (≈ 0.2 µg/mL); with mmpL3-TetON (experiment: Follow-Up) it was 1.9 µM (≈ 0.388 µg/mL); against mmpL3-TetON (experiment: Initial), 1.3 µM (≈ 0.266 µg/mL).

With `CC(C)=CCC/C(C)=C/CNCCNC1C2CC3CC(C2)CC1C3` (stereo not drawn) [SQ109, reference compound], the MIC against WT H37Rv (experiment: Follow-Up) worked out at 0.98 µM (≈ 0.324 µg/mL); against WT H37Rv (experiment: Initial) it was 0.99 µM (≈ 0.327 µg/mL); in the data set on mmpL3-TetON (experiment: Follow-Up) it was 0.19 µM (≈ 0.0628 µg/mL); against mmpL3-TetON (experiment: Initial), 0.27 µM (≈ 0.0893 µg/mL). For the same compound, the MIC50 stood at 0.54 µM (≈ 0.179 µg/mL) against WT H37Rv (experiment: Follow-Up), 0.39 µM (≈ 0.129 µg/mL) in the data set on WT H37Rv (experiment: Initial), 0.1 µM (≈ 0.0331 µg/mL) in the data set with mmpL3-TetON (experiment: Follow-Up) and 0.071 µM (≈ 0.0235 µg/mL) against mmpL3-TetON (experiment: Initial).
